Measurements as given in PMC12684298, “The Parkinson's Disease Drug Tolcapone and Analogues are Potent Glycomimetic Lectin Inhibitors of Pseudomonas aeruginosa LecA” (Angewandte Chemie (International Ed. in English), 2025).

Tests used:
LecA [1] = biological target: T1, LecA (Pseudomonas aeruginosa, UniProt Q05097); assay: Surface plasmon resonance (SPR) direct binding, steady-state affinity
T1 construct: made in house; host or cells: E. coli BL21 (DE3), plasmid pET25pa11
Description: To confirm the affinity of Tolcapone toward LecA in an orthogonal assay, the compound was then evaluated in a direct binding experiment by surface plasmon resonance (SPR).
Using a BIACORE X100, LecA was immobilised on a CM7 chip by standard amine coupling at 25 °C as described previously.^[5] From a 200 mM solution of Tolcapone in 100% DMSO, a 10 mM solution in PBS (supplemented with 0.05% Tween20 and 100 µM CaCl2) was prepared. The final dilutions (0 – 2000 µM) were then prepared by dilution with running buffer (PBS supplemented with 0.05% Tween 20, 100 µM CaCl2 and 5% DMSO). Increasing concentrations of Tolcapone were injected onto the immobilised LecA in steady-state affinity studies (30 s association, 60 s dissociation, flow rate 30 µL/min). Data was corrected by subtraction of the reference channel (no immobilised LecA) and analysed with the BIACORE X100 evaluation software (version 2.0). The average binding affinity and standard deviation of three independent experiments is given.

LecA [2] = biological target: T1, LecA; assay: biochemical; assay type: binding; settings: IC50, LecA inhibition, competitive binding assay (FP), tested up to 1.5 mM, n ≥ 2
Description: Therefore, we focused our attention on commercially available nitro‐catechols. Prominent derivatives are inhibitors of the enzyme catechol‐O‐methyltransferase (COMT) and approved drugs for the treatment of Parkinson's disease. Four commercial COMT inhibitors were thus evaluated in a previously reported competitive binding assay based on fluorescence polarisation (FP, Table 1, Figure 1).^[ [32] ^]
The competitive binding assay was performed in analogy to Joachim et al.^[2] 10 µL of a solution containing LecA (40 µM) and sulfo-Cy5-Gal (20 nM, synthesis described in Kuhaudomlarp, Siebs et al.^[5]) in TBS/Ca buffer (20 mM Tris, 147 mM NaCl, 2.6 mM KCl at pH 7.4 supplemented with 1 mM CaCl2) were distributed in into wells of a black 384-well microtiter plate (Greiner Bio-One, Germany, cat no 781900). Then, 10 µL of serial dilutions of compounds (3 mM to 1.5 µM, dilution factor 0.5) in TBS/Ca with 40% DMSO were added in technical triplicates. Final concentrations after mixing were the following: 1.5 mM – 0.73 µM compound, 20 µM LecA, 10 nM sulfo-Cy5-Gal and 20% DMSO. The plate was sealed (EASYseal, Greiner Bio-One, cat no 676001), briefly centrifuged and incubated at room temperature in the dark under shaking conditions. Fluorescence intensity was measured after 1 h and 4 h using a PheraStar FS plate reader (BMG Labtech GmbH, Germany) with spectral filters for excitation at 590 nm and emission at 675 nm and polarization was calculated after blank values of 20 µM LecA in TBS/Ca buffer with 20% DMSO were subtracted from the test compounds. The data were analysed using the four-parameter variable slope model of the MARS Data Analysis software. The top and bottom plateau were assigned based on the control compound methyl α-d-galactoside and the data was reanalysed with these fixed values. If not mentioned otherwise, the experiment was repeated at least three times for each compound and the average and standard deviation are given. In case Triton X-100 was used it was added to the TBS/Ca buffer before the assay.

[3] = one of the hydroxy groups; no reference given; cited from earlier work
LecA [4] = biological target: T1, LecA; assay: Library screening using the FP competitive binding assay (three concentrations); settings: read-out: Activity [%] (% inhibition relative to 500 µM pNPGal)
Description: Next, we screened a library of catechols from F. Hoffmann‐La Roche, the developer of Tolcapone, in the competitive binding assay to establish a structure–activity relationship. To this end, two sets of compounds with a molecular cut‐off of 500 Da were chosen: a first set of 342 compounds contained derivatives of Tolcapone, while a second set of 3222 compounds comprised catechols covering a larger chemical space. […] Tests were run in a 384‐well‐plate format at three concentrations (first set at 125, 32, and 4 µM, second set at 100, 25, and 3 µM) in presence of 10% DMSO and 250 µM 2‐mercaptoethanol to prevent interference by a potential unspecific reactivity of electron‐rich catechols as established earlier.^[ [30] ^]
The screening followed the same assay by Joachim et al.^[2] as described above. Compounds in DMSO (1 µL with the appropriate concentration) were plated using a robot into black 384-well microtiter plates (Greiner Bio-One, Germany, cat no 781900) by the Roche compound handling facility at four replicates per concentration and compound. A mixture of LecA, sulfo-Cy5-Gal and 2-mercaptoethanol in TBS/Ca (20 mM Tris, 147 mM NaCl, 2.6 mM KCl at pH 7.4 supplemented with 1 mM CaCl2) with DMSO was added at HIPS. Final concentrations in both screening rounds were the following: 5 µM LecA, 250 µM 2-mercaptoethanol, 10 nM sulfo-Cy5-Gal and 10% DMSO. Final concentrations of the 342 compounds of the first screening round were 125 µM, 32 µM and 4 µM. The 3222 compounds of the second screening round were tested at final concentrations of 100 µM, 25 µM and 3 µM. The plate was sealed (EASYseal, Greiner Bio-One, cat no 676001), briefly centrifuged and incubated at room temperature in the dark under shaking conditions. Fluorescence intensities were measured after 1 h and 24 h using a PheraStar FS plate reader (BMG Labtech GmbH, Germany) with spectral filters for excitation at 590 nm and emission at 675 nm and polarization was calculated after blank values of 5 µM LecA in TBS/Ca buffer with 250 µM 2-mercaptoethanol and 10% DMSO were subtracted from the test compounds. The data were analysed using the MARS Data Analysis software. […] All stated values are the average including the standard deviation based on three replicates for 100 µM and four replicates in the case of compounds at 125 µM.

T1 sequence (Q05097 whole entry): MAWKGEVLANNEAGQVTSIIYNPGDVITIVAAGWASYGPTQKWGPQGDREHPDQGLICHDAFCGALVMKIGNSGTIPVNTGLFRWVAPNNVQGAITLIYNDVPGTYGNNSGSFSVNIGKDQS

Cc1ccc(C(=O)c2cc(O)c(O)c([N+](=O)[O-])c2)cc1 [compound 4, Tolcapone]
Kd (LecA [1]): 181 ± 6 µM
IC50 (LecA [2]): 257 ± 40 µM
pKa [3]: ~4.6
inhibition at 100 µM (LecA [4]): 43.9 ± 2.1%
